Test results taken from patent publication US11091781B2, “Carbon fixation systems and methods” (priority 2015, dated 2021).

Tests used:
R. eutropha [1] = assay: Spot assay of R. eutropha in the presence of Co^2+; type: cell-based, Ralstonia eutropha; details: estimated by comparison at 1/100 dilution, FIG. 18, read-out: half maximal inhibitory concentration, IC50 (concentration of Co^2+ toxic to R. eutropha)
Protocol: (§1) The procedure for spot assays was performed by diluting 100 μL of culture grown under different conditions by 1:10 in fresh minimal medium, which was vortexed. Three to four serial 10-fold dilutions were made and 2 μL of each dilution was spotted on rich broth agar plates and allowed to dry. Plates were typically grown for 2 days at 30° C. before imaging. The half maximal inhibitory concentration (IC50) was estimated based on the comparison at 1/100 dilution. The areas of colonies at certain conditions were then compared with that of control samples.
FIG. 17 presents, cyclic voltammograms of Co^2+ in the phosphate buffer (pH=7), a pre-wave to the catalytic water-splitting current corresponds to the oxidation of Co^2+ to Co^3+, which drives deposition of the catalyst. […] As noted previously, the self-healing property of CoPi alloy is derived from this interplay of the potential at which OER occurs vs. the potential at which the catalyst deposits. In concert, the Co—P and CoPi catalysts maintain extremely low concentrations of Co^2+ in solution through activity derived from the self-healing process. Inductively coupled plasma mass spectrometry (ICP-MS) analysis of a Co-P|CoPi catalysts system (Eappl=2.2 V) confirm that sub-μM levels of Co^2+ are present in solution after 24 h. […]

R. eutropha [2] = type: cell-based, Ralstonia eutropha; details: spot assay at different isopropanol concentrations, FIG. 25
Protocol: as §1
FIG. 25 is a photograph of cell cultures taken for different isopropanol concentration.

[3] = system: H16 and ROS-resistant BC4 strains of R. eutropha; assay: Spot assay of ROS tolerance with paraquat as ROS-inducer; type: cell-based, Ralstonia eutropha; details: BC4 vs wild-type H16, FIG. 26
Protocol: as §1
A ROS-resistant variant of R. eutropha, evolved from a reactor including a stainless steel CoPi water-splitting electrode pair after 11 consecutive days of operation at an applied voltage potential of 2.3 V with a H2O2 generation rate of ˜0.6 μM/min. […] However, there was minimal difference noted in ηelec for the current reactor systems using the Co-P|CoPi electrode pairs, confirming minimal concentrations of ROS in the reactors. Of course, it should be understood that BC4 may be used in any reactor system, and may also be beneficial for use in helping systems achieve a high ηelec where ROS are present in larger concentrations.

[4] = target: membrane-bound hydrogenases in R. eutropha (Cupriavidus necator, UniProt P31891); details: H2 as substrate; cited from earlier work
membrane-bound hydrogenases in R. eutropha, sequence (P31891 1-603 limits assumed): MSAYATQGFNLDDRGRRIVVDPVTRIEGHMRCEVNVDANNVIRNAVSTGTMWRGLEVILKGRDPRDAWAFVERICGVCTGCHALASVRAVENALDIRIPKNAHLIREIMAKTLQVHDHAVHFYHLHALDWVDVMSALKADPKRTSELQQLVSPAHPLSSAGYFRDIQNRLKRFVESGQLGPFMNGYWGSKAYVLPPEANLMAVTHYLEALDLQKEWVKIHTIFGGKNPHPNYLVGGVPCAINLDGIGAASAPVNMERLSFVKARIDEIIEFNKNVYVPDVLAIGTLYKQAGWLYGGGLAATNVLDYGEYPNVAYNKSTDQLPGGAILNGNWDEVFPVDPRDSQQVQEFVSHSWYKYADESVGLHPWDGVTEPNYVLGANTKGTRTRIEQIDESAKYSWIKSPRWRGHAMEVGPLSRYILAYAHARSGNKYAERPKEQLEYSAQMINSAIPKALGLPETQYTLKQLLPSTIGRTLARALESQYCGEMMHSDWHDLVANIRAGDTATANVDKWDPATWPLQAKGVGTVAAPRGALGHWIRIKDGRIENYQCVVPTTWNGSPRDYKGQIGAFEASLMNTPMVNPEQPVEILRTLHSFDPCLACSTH
membrane-bound hydrogenases in R. eutropha, sequence (P31892 44-360 partner): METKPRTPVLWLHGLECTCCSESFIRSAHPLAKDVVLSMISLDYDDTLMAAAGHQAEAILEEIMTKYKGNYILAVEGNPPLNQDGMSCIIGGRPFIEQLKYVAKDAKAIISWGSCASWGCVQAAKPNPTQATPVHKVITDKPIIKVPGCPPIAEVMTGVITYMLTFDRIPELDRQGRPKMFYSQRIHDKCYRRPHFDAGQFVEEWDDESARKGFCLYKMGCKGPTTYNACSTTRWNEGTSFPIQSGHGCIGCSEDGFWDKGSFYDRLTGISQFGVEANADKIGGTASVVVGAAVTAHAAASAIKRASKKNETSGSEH

[Co+2] [Co^2+]
IC50 (R. eutropha [1]): ~25 µM

CC(C)O [isopropanol]
tolerance of R. eutropha towards isopropanol (R. eutropha [2]): demonstrates tolerance

C[n+]1ccc(-c2cc[n+](C)cc2)cc1 [paraquat]
IC50 of paraquat for BC4 compared with wild type [3]: almost one order of magnitude higher than that of wild type

[HH] [H2, hydrogen]
Michaelis constant [4]: about 6 μM
